# Assays:
# THP-1 cells [1] = experiment: HOXB4-WT transduction: target gene mRNA by real-time PCR (Fold over control) and total RNA (ng/μL) as marker for cell viability; assay type: cell-based, human; conditions: for Total RNA in ng/μL (mean ± St. Dev): THP-1, serum
# Procedure: Control and treated cells are transferred to separate sterile 1.5-mL tubes and centrifuged for 5 minutes at 300g. The cell pellets are resuspended in appropriate buffer to lyse the cells. RNAase-free 70% ethanol is then added followed by mixing by pipetting. The lysates are transferred to an RNeasy™ Mini spin column and centrifuged 30 seconds at 13000 RPM. After several washes with appropriate buffers and centrifugation steps, the eluates are collected in sterile 1.5-mL tubes on ice, and the RNA quantity in each tube is then quantified with a spectrophotometer. For DNase treatment, 2 μg of RNA is diluted in 15 μL of RNase-free water. 1.75 μL of 10X DNase buffer and 0.75 μL of DNase is then added, followed by incubation at 37° C. for 15 minutes. For reverse transcriptase treatment, 0.88 μL of EDTA […] is added, followed by incubation at 75° C. for 5 minutes. In a PCR tube, […] of DNase-treated RNA is mixed with 4 μL of iScript™ Reverse transcription Supermix (5X) and […] of nuclease-free water. The mix is incubated in a PCR machine with the following program: 5 min at 25° C., 30 min at 42° C. and 5 min at 85° C. Newly synthesized cDNA is transferred in sterile 1.5-mL tubes and diluted in 2 μL of nuclease-free water. 18 μL per well of a qPCR machine (CFX-96™) mix is then added in a PCR plate for analysis.
# Briefly, THP-1 cells were plated at 30 000 cells/well one day before transduction. HOXB4-WT recombinant protein ([…]; Example 14.1) was co-incubated with different concentrations of His-CM18-PTD4 ([…]) and then exposed to THP-1 cells for 2.5 hours in the presence of serum. The cells were subjected to real time-PCR analysis as described in Example 14.2 to measure the mRNA levels of a target gene as a marker for HOXB4 activity, which was then normalized to the target gene mRNA levels detected in the negative control cells (no treatment), to obtain a “Fold over control” value. Total RNA levels (ng/μL) were also measured as a marker for cell viability.
# Briefly, THP-1 cells were plated at 30 000 cells/well one day before the first time course experiment. HOXB4-WT recombinant protein (1.5 μM; Example 14.1) was co-incubated with His-CM18-PTD4 (0.8 μM) and then exposed to THP-1 cells for 0, 2.5, 4, 24 or 48 hours in presence of serum. The cells were subjected to real time-PCR analysis as described in Example 14.2 to measure mRNA levels of a target gene as a marker for HOXB4 activity, which was then normalized to the target gene mRNA levels detected in the negative control cells (no treatment), to obtain a “Fold over control” value. Total RNA levels (ng/μL) were also measured as a marker for cell viability.
# Briefly, THP-1 cells were plated at 30 000 cells/well one day before the first time course experiment. HOXB4-WT recombinant protein (0.3 μM; Example 14.1) was co-incubated with His-CM18-PTD4 (0.8 μM) and then exposed to THP-1 cells for 0, 0.5, 1, 2, 2.5, 3 or 4 hours in presence of serum. The cells were subjected to real time-PCR analysis as described in Example 14.2 to measure mRNA levels of a target gene as a marker for HOXB4 activity, which was then normalized to target gene mRNA levels detected in the negative control cells (no treatment), to obtain a “Fold over control” value. Total RNA levels (ng/μL) were also measured as a marker for cell viability.
# Briefly, THP-1 cells were plated at 30 000 cells/well one day before the first time course experiment. HOXB4-WT recombinant protein (1.5 μM; Example 14.1) co-incubated with the shuttle agents His-CM18-PTD4, TAT-KALA, EB1-PTD4, His-C(LLKK)3C-PTD4 and His-CM18-PTD4-His at 0.8 μM, and then exposed to THP-1 cells for 2.5 hours in presence of serum. The cells were subjected to real time-PCR analysis as described in Example 14.2 to measure mRNA levels of a target gene as a marker for HOXB4 activity, which was then normalized to target gene mRNA levels detected in the negative control cells (no treatment), to obtain a “Fold over control” value. […]
# THP-1 cells [2] = experiment: GFP-NLS protein transduction assay (flow cytometry: Pos cells %, viability %, relative fluorescence intensity; microscopy)
# [3] = THP-1, Protocol C, 5 μM shuttle, 5 μM GFP-NLS, 15 seconds
smiles,measurement,setting,value
CC[C@H](C)[C@H](NC(=O)[C@H](CCCCN)NC(=O)[C@H](CCCCN)NC(=O)[C@H](Cc1ccccc1)NC(=O)[C@H](CC(C)C)NC(=O)[C@H](CCCCN)NC(=O)[C@H](Cc1c[nH]c2ccccc12)NC(=O)[C@H](CCCCN)NC(=O)[C@H](Cc1c[nH]cn1)NC(=O)[C@H](Cc1c[nH]cn1)NC(=O)[C@H](Cc1c[nH]cn1)NC(=O)[C@H](Cc1c[nH]cn1)NC(=O)[C@H](Cc1c[nH]cn1)NC(=O)[C@@H](N)Cc1c[nH]cn1)C(=O)NCC(=O)N[C@@H](C)C(=O)N[C@H](C(=O)N[C@@H](CC(C)C)C(=O)N[C@@H](CCCCN)C(=O)N[C@H](C(=O)N[C@@H](CC(C)C)C(=O)N[C@H](C(=O)N[C@H](C(=O)NCC(=O)N[C@@H](Cc1ccc(O)cc1)C(=O)N[C@@H](C)C(=O)N[C@@H](CCCNC(=N)N)C(=O)N[C@@H](C)C(=O)N[C@@H](C)C(=O)N[C@@H](C)C(=O)N[C@@H](CCCNC(=N)N)C(=O)N[C@@H](CCC(N)=O)C(=O)N[C@@H](C)C(=O)N[C@@H](CCCNC(=N)N)C(=O)N[C@@H](C)C(=O)O)[C@@H](C)O)[C@@H](C)O)C(C)C)C(C)C [His-CM18-PTD4],target gene mRNA transcription after HOXB4-WT transduction (in words),THP-1 cells [1]; 2.5 hours in the presence of serum,dose-dependent increase in mRNA transcription of the target gene
same,Total RNA in ng/μL (mean ± St. Dev),"THP-1 cells [1]; Table 14.1, 2.5 hours, shuttle 1 μM, HOXB4-WT 0 μM (alone)",252 ± 10.7 ng/µL
same,Total RNA in ng/μL (mean ± St. Dev),"THP-1 cells [1]; Table 14.2, shuttle 0.8 μM, HOXB4-WT 0 μM (alone), exposure 2.5 h",184 ± 6.0 ng/µL
same,Total RNA in ng/μL (mean ± St. Dev),"THP-1 cells [1]; Table 14.3, shuttle 0 μM, HOXB4-WT 0.3 μM (alone), exposure 2.5 h",260 ± 7.1 ng/µL
same,Total RNA in ng/μL (mean ± St. Dev),"THP-1 cells [1]; Table 14.4, shuttle 0 μM, HOXB4-WT 1.5 μM (alone), exposure 2.5 h",303.9 ± 7.6 ng/µL
same,GFP-NLS intracellular delivery after repeated daily treatments (in words),"THP-1 cells [2]; 0.5 or 0.8 μM shuttle, 150 min each day, in the presence of serum",result in intracellular delivery of GFP-NLS
same,Mean % cells with GFP signal (±St. Dev.; n = 3),"THP-1 cells [2]; Protocol C, THP-1, 1 μM shuttle, 5 μM GFP-NLS, incubation 15 sec",23.7 ± 0.2%
same,Mean % cells with GFP signal (±St. Dev.; n = 3),"THP-1 cells [2]; Protocol C, THP-1, 1 μM shuttle, 5 μM GFP-NLS, incubation 30 sec",53 ± 0.3%
same,Mean % cells with GFP signal (±St. Dev.; n = 3),"THP-1 cells [2]; Protocol C, THP-1, 1 μM shuttle, 5 μM GFP-NLS, incubation 60 sec",69.6 ± 4.2%
same,Mean % cells with GFP signal (±St. Dev.; n = 3),"THP-1 cells [2]; Protocol C, THP-1, 1 μM shuttle, 5 μM GFP-NLS, incubation 120 sec",89 ± 0.8%
same,Cell viability (%) (±St. Dev.; n = 3),THP-1 cells [2]; [3],64.1 ± 4.5%
same,Mean % cells with GFP signal (±St. Dev.; n = 3),THP-1 cells [2]; [3],64.1 ± 1.6%
same,Mean % cells with GFP signal (±St. Dev.; n = 3),"THP-1 cells [2]; THP-1, serum, daily 150 min, 0.5 μM shuttle, 5 μM GFP-NLS, 1 day exposure",12.1 ± 1.5%
same,Mean % cells with GFP signal (±St. Dev.; n = 3),"THP-1 cells [2]; THP-1, serum, daily 150 min, 0.5 μM shuttle, 5 μM GFP-NLS, 3 days exposure",73.4 ± 1.1%
same,Mean % cells with GFP signal (±St. Dev.; n = 3),"THP-1 cells [2]; THP-1, serum, daily 150 min, 0.8 μM shuttle, 1 μM GFP-NLS, 1 day exposure",1.6 ± 0.2%
same,Mean % cells with GFP signal (±St. Dev.; n = 3),"THP-1 cells [2]; THP-1, serum, daily 150 min, 0.8 μM shuttle, 1 μM GFP-NLS, 3 days exposure",6.5 ± 0.9%
same,Mean % cells with GFP signal (±St. Dev.; n = 3),"THP-1 cells [2]; THP-1, serum, daily 150 min, 0.8 μM shuttle, 2.5 μM GFP-NLS, 1 day exposure",12.2 ± 0.9%
same,Mean % cells with GFP signal (±St. Dev.; n = 3),"THP-1 cells [2]; THP-1, serum, daily 150 min, 0.8 μM shuttle, 2.5 μM GFP-NLS, 3 days exposure",62.4 ± 3.5%
same,Mean % cells with GFP signal (±St. Dev.; n = 3),"THP-1 cells [2]; Table 9.3, Protocol A, THP-1, shuttle 1 μM, GFP-NLS 5 μM, 1 hour",14.2 ± 2.2%
same,Mean % cells with GFP signal (±St. Dev.; n = 3),"THP-1 cells [2]; Table 9.3, Protocol C, THP-1, shuttle 0.5 μM, GFP-NLS 5 μM, 15 seconds",34.9 ± 3.8%
same,Mean % cells with GFP signal (±St. Dev.; n = 3),"THP-1 cells [2]; Table 9.3, Protocol C, THP-1, shuttle 5 μM, GFP-NLS 5 μM, 15 seconds",64.1 ± 1.6%
same,"GFP-NLS intracellular delivery (microscopy / FACS, in words)","THP-1 cells [2]; shuttle 5 μM, GFP-NLS 5 μM, 15 seconds, Protocol C",successfully delivered intracellularly

# — patent US12286632B2, “Rationally-designed synthetic peptide shuttle agents for delivering polypeptide cargos from an extracellular space to the cytosol and/or nucleus of a target eukaryotic cell, uses thereof, methods and kits relating to same” (Feldan Bio Inc., priority 2016, dated 2025)
